Experimental data as given in patent publication US20210069356A1, “ISOTOPOLOGUES OF 2-(4-CHLOROPHENYL)-N-((2-(2,6-DIOXOPIPERIDIN-3-YL)-1-OXOISOINDOLIN-5-YL)METHYL)-2,2-DIFLUOROACETAMIDE” (Celgene Corporation, priority 2018, published 2021).

How the values were obtained:
KG-1 cell line = test: KG-1 cell proliferation, CellTiter-Glo assay; assay type: cell-based; details: Homo sapiens; KG-1 cells, 72 hours post-treatment; read-out: FCA Prolif Cell TiterGlo KG-1 72 h (IC50)
Description: (§1) The anti-proliferative activity of the test compounds was evaluated on KG-1 and KG-1a cell lines using CellTiter-Glo assay as described in U.S. Pat. No. 9,499,514 at 72 hours post-treatment.

KG-1a cell line = test: KG-1a cell proliferation, CellTiter-Glo assay; assay type: cell-based; details: Homo sapiens; KG-1a cells, 72 hours post-treatment; read-out: FCA Prolif Cell TiterGlo KG-1a 72 h (IC50)
Description: as §1

| SMILES | IC50 (KG-1 cell line) | IC50 (KG-1a cell line) |
| --- | --- | --- |
| [2H]c1cc(C(F)(F)C(=O)NCc2ccc3c(c2)CN(C2CCC(=O)NC2=O)C3=O)ccc1Cl (stereo not drawn) | 15.5 nM | 18.1 nM |
| [2H]c1cc(Cl)ccc1C(F)(F)C(=O)NCc1ccc2c(c1)CN(C1CCC(=O)NC1=O)C2=O (stereo not drawn) | 36.9 nM | 29.9 nM |
| [2H]c1c([2H])c(C(F)(F)C(=O)NCc2ccc3c(c2)CN(C2CCC(=O)NC2=O)C3=O)c([2H])c([2H])c1Cl (stereo not drawn) | 26.2 nM | 31.3 nM |
